Where two headings read alike, the source gives them in different places. Residues, ends and D or L forms follow the SMILES beside them.
What was measured:
[1] = target: T1, ACE (Oryctolagus cuniculus, UniProt P12822); test: Inhibition pattern / kinetics of ACE in presence of KNFL; type: biochemical, rabbit; conditions: for Vmax: nonlinear regression, control 55.492
T1 construct: Angiotensin I-converting enzyme (ACE, EC3.4.15.1) from rabbit lung; purchased Sigma-Aldrich Co. (St. Louis, MO, USA); host or cells: rabbit lung (tissue-derived)
T1 sequence (P12822 34-1310): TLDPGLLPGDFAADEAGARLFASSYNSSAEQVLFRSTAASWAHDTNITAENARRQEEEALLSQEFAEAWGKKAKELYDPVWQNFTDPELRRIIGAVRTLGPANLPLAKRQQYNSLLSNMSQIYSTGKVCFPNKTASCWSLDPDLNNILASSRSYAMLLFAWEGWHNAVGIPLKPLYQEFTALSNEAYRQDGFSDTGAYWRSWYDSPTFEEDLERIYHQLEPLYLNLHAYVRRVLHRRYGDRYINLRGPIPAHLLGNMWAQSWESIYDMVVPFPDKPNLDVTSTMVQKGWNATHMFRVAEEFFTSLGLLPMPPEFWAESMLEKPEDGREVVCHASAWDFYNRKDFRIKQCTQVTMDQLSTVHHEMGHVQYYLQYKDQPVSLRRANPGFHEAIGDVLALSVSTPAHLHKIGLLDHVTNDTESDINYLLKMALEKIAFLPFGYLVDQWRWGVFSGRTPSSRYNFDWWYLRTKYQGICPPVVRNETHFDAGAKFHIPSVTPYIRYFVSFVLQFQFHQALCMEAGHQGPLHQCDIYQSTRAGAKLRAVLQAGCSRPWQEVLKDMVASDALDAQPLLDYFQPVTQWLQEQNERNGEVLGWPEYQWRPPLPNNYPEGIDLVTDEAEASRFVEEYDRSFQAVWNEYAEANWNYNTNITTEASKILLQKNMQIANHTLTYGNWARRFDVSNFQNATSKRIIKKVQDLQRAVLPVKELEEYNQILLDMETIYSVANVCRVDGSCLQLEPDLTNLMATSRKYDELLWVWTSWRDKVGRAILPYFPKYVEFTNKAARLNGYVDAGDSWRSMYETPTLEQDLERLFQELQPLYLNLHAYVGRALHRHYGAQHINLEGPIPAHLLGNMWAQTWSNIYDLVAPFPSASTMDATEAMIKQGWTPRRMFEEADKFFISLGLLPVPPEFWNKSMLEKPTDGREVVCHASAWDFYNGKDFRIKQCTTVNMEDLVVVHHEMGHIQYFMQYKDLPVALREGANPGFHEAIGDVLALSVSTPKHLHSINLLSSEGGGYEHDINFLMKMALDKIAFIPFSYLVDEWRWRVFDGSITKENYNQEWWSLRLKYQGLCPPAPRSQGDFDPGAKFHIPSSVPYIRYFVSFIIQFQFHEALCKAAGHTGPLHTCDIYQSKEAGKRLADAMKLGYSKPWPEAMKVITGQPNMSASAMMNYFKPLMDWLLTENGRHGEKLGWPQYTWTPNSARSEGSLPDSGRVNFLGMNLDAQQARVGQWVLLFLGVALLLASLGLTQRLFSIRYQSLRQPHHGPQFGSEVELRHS
From the text: ACE inhibitor peptides have been reported with competitive, noncompetitive, uncompetitive, and mixed modes of interaction. The kinetic constants were estimated by using nonlinear regression analysis (SPSS, version 26.0, Inc., Chicago, IL, USA) and the nonlinear fitting plots were shown in Figure 8. […] Mixed-type inhibitors interact with the non-catalytic site of the enzyme and combine with the enzyme to produce an ACE–HHL(Hip-His-Leu) peptide complex which might leads to conformational changes and a decrease in substrate affinity at the active site resulting in loss of activity. A great many of ACE inhibitor peptides acted in a mixed-type manner. For example, the MAINPSKENLCSTFCK peptide produced from casein hydrolysates, and EVSQGRP, VSRHFASYAN and SAAVGSP generated from Stichopus horrens.
Angiotensin I-converting enzyme (ACE, EC3.4.15.1) from rabbit lung, HHL (Hippuryl-L-histidyl-L-leucine), were obtained from Sigma-Aldrich Co. (St. Louis, MO, USA). The ACE inhibitor KNFL (Lys-Asn-Phe-Leu) was supplied by GL Biochem Ltd. (Shanghai, China). Iron chloride hexahydrate (FeCl3·6H2O), ethylene glycol (EG), diethylene glycol (DEG), sodium acetate anhydrous (NaAc), and zinc acetate dehydrate Zn(CH3COO)2·2H2O were all obtained from Sinopharm Chemical Reagent Co., Ltd. (Shanghai, China). Polyacrylic acid (PAA), imidazolate-2-carboxyaldehyde (2-ICA, 98 %), sodium acrylate (NaAA) were purchased from Macklin Biochemical Co., Ltd (Shanghai, China). The other chemicals and reagents used were of AR grade and used without further purification.
ACE activity was evaluated by measuring the amount of hippuric acid (HA). The assay mixture (0.3 mL) consisted of 130 µL BBS buffer pH 8.3 ([…], containing 0.3 M NaCl), 40 µL HHL (5 mM), and different amounts of the free and immobilized ACE. Incubation was carried out at 37 °C for 10 min and was terminated by addition of HCl (0.1 mL, 1 M). The HA content of the mixture was determined by RP-HPLC (Agilent 1260) at 228 nm with a DAD detector. One unit of ACE enzyme activity (U) was defined as the amount of enzyme catalyzing HHL to generate 1 µM of HA per minute under the experimental conditions.

[2] = synthetic ACE inhibitors in hypertension treatment; ref [1]; cited from earlier work
From the text: As a zinc-dependent carboxypeptidase, angiotensin-I-converting enzyme (ACE EC 3.4.15.1) is prolific in biological tissues and blood, and plays an important role in modulating blood pressure. ACE cannot only convert angiotensin I to angiotensin II (a potent vasoconstrictor), but it can also degrade the vasodilator bradykinin [2]. ACE inhibitors are, thus, a class of drugs frequently used in the treatment of hypertension. Synthetic ACE inhibitors, including captopril, benazepril, enalapril, and perindopril are associated with various side effects, such as cough, taste disturbances, aller ...

[3] = system: ACE; conditions: cited from earlier work
From the text: ACE inhibitor peptides have been reported with competitive, noncompetitive, uncompetitive, and mixed modes of interaction. The kinetic constants were estimated by using nonlinear regression analysis (SPSS, version 26.0, Inc., Chicago, IL, USA) and the nonlinear fitting plots were shown in Figure 8. […] Mixed-type inhibitors interact with the non-catalytic site of the e ...

[4] = in the presence of KNFL (192 and 384 µM)
[5] = generated from Stichopus horrens, ref [51]

## CC(C)C[C@H](NC(=O)[C@H](Cc1ccccc1)NC(=O)[C@H](CC(N)=O)NC(=O)[C@@H](N)CCCCN)C(=O)O [KNFL, Lys-Asn-Phe-Leu] (H-KNFL-OH; N-terminus and C-terminus assumed)
[1]; KNFL at 192 µM
  Vmax: 45.958 µM/L·min
[1]; KNFL at 384 µM
  Vmax: 24.105 µM/L·min
[1]; b33/b37: nonlinear regression, b1: Lineweaver–Burk analysis
  inhibition pattern: mixed-type inhibition
[1]; [4]
  effect on Km: increased
  effect on Vmax: decreased in a dose-dependent pattern

## CCOC(=O)[C@H](CCc1ccccc1)N[C@H]1CCc2ccccc2N(CC(=O)O)C1=O [benazepril]
[2]
  side effects: cough, taste disturbances, allergic reactions, and skin rashes

## C[C@H](CS)C(=O)N1CCC[C@H]1C(=O)O [captopril]
[2]
  side effects: cough, taste disturbances, allergic reactions, and skin rashes

## CCOC(=O)[C@H](CCc1ccccc1)N[C@@H](C)C(=O)N1CCC[C@H]1C(=O)O [enalapril]
[2]
  side effects: cough, taste disturbances, allergic reactions, and skin rashes

## CCC[C@H](N[C@@H](C)C(=O)N1[C@H](C(=O)O)C[C@@H]2CCCC[C@@H]21)C(=O)OCC [perindopril]
[2]
  side effects: cough, taste disturbances, allergic reactions, and skin rashes

## EVSQGRP [peptide generated from Stichopus horrens]
[3]; [5]
  inhibition mode: mixed-type

## MAINPSKENLCSTFCK [peptide produced from casein hydrolysates]
[3]; produced from casein hydrolysates, ref [50]
  inhibition mode: mixed-type

## SAAVGSP [peptide generated from Stichopus horrens]
[3]; [5]
  inhibition mode: mixed-type

## VSRHFASYAN [peptide generated from Stichopus horrens]
[3]; [5]
  inhibition mode: mixed-type

— publication PMC8004985, “Affinity Purification of Angiotensin Converting Enzyme Inhibitory Peptides from Wakame (Undaria Pinnatifida) Using Immobilized ACE on Magnetic Metal Organic Frameworks” (Marine Drugs, 2021)
